Laboratory results reported in patent publication US20100130579A1, “CANCER THERAPY” (Georgetown University, priority 2006, published 2010).
Entries after “also recorded” stand apart in the source; their conditions may differ.

Columns and labels:
Type in all cases: cell-based
DNA synthesis = assay: Inhibition of DNA synthesis / anticancer effects of KED compounds; conditions: in the assay used (inhibition of DNA synthesis, FIGS. 7A-7D)
Experimental: FIGS. 7A-7D. FIGS. 7A-7D show the dose-dependent inhibition of DNA synthesis with KED compounds.
(§1) Anticancer effects and activation of a tumor suppressor gene, RASSF1A) KED-3-63-1, KED 3-63-2 and KED 3-81 were assessed.

cyclin D1 = assay: Cyclin D1 expression after KED compound; conditions: as a result of RASSF1A induction
Experimental: as §1

RASSF1A = assay: Activation of tumor suppressor gene RASSF1A by KED compounds
Experimental: as §1

SMILES | anticancer effects (DNA synthesis) | cyclin D1 expression (cyclin D1) | induction of RASSF1A (RASSF1A)
COc1ccc2c(c1)[nH]c1c(C)c3c(cc12)C=CC(C)(CCC=C(C)C)O3 (centres unmarked) [KED-3-63-1] | have anti-cancer effects; also recorded: have anticancer effects | down-regulated | induced RASSF1A
COc1ccc2c(c1)[nH]c1cc(OCc3ccccc3)c(C)cc12 [KED-3-81] | have anti-cancer effects; also recorded: have anticancer effects | – | –
COc1ccc2c(c1)[nH]c1c(C)c(OCc3ccccc3)ccc12 [KED-3-63-2] | does not; also recorded: no anti-cancer effects | – | –
